# What was measured:
# rice blast = assay: microbe, parasite or virus in culture; assay type: cell-based; details: Pyricularia oryzae; for inhibition at 25 ppm: read-out: inhibition rate against rice blast, 25 ppm, in vitro
# [1] = system: Green peach aphids (Myzus Persicae Sulzer); assay: bioactivity test against green peach aphid, airbrush foliar spray; assay type: in vivo; details: Myzus persicae, foliar, 48 h, contrastive test, read-out: Insecticidal activity against peach aphid (%); for pest or weed control at 600 µg/mL: 600 mg/L; for pest or weed control at 10 µg/mL: 10 mg/L; for pest or weed control at 100 µg/mL: 100 mg/L
# Outline: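 Death rate was scored at 48 hrs, held at 25±1 C and 60±5% RH, following airbrush foliar spray (0.5 mL, 10 psi) onto cabbage leaf discs bearing about 15-30 aphids. Test solutions: compound dissolved in 1:1 acetone:methanol, brought to concentration with 0.1% tween 80 water.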
# cucumber downy mildew = assay: protectant activity in vivo against cucumber downy mildew; details: Cucumis sativus, 168 h, protectant activity; for pest or weed control at 400 µg/mL: read-out: control effect against cucumber downy mildew (%), 400 mg/L; for pest or weed control at 25 µg/mL: read-out: control effect against cucumber downy mildew (%), 25 mg/L; for pest or weed control at 50 µg/mL: read-out: control effect against cucumber downy mildew (%), 50 mg/L; for pest or weed control at 100 µg/mL: read-out: control effect against cucumber downy mildew (%), 100 mg/L
# Diamond back moth = assay: insecticidal activity against diamond back moth, airbrush spray; assay type: in vivo; details: 72 h; for pest or weed control at 600 µg/mL: 600 mg/L
# Outline: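 Airbrush leaf-disc spray test: both faces of 2 cm cabbage discs received 0.5 ml of test solution at 0.7 kg/cm^2. Solutions were made in acetone:methanol (1:1) and brought to concentration with 0.1% Tween 80 in water. Ten second-instar larvae per disc, triplicates, were held at 25° C and 60˜70% R.H., with mortality recorded at 72 hrs.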
# cucumber gray mold = assay: fungicidal activity in vitro (inhibition rate) against cucumber gray mold; assay type: cell-based; details: 25 ppm, in vitro; read-out: inhibition rate against cucumber gray mold
# wheat powdery mildew = assay: protectant activity in vivo against wheat powdery mildew; details: Triticum aestivum, 168 h, read-out: control effect against wheat powdery mildew (%), 400 mg/L; protectant activity
# carmine spider mite = assay: bioactivity test against carmine spider mite, airbrush spray; assay type: in vivo; details: Tetranychus cinnabarinus, 72 h, contrastive test, read-out: Insecticidal activity against carmine spider mite (% ); for pest or weed control at 600 µg/mL: 600 mg/L
# Outline: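 Broadbean seedlings infested with adult mites were sprayed with compound (acetone/methanol stock diluted in 0.1% Tween 80 water) by airbrush at 0.7 kg/cm^2, 0.5 ml. Three replicates were run. Mortality was scored after 72 hrs.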
# armyworm = assay: bioactivity test against armyworm, airbrush spray; assay type: in vivo; details: 72 h, 600 mg/L; read-out: Insecticidal activity against armyworm (%)
# corn rust = assay: protectant activity in vivo against corn rust; details: Zea mays, 168 h, protectant activity; for pest or weed control at 400 µg/mL: read-out: control effect against corn rust (%), 400 mg/L
SMILES,inhibition at 25 ppm (rice blast) [%],pest or weed control at 600 µg/mL [1] [%],pest or weed control at 400 µg/mL (cucumber downy mildew) [%],pest or weed control at 600 µg/mL (Diamond back moth) [%],inhibition at 25 ppm (cucumber gray mold) [%],pest or weed control at 400 µg/mL (wheat powdery mildew) [%],pest or weed control at 600 µg/mL (carmine spider mite) [%],pest or weed control at 600 µg/mL (armyworm) [%],pest or weed control at 400 µg/mL (corn rust) [%],pest or weed control at 10 µg/mL [1] [%],pest or weed control at 100 µg/mL [1] [%],pest or weed control at 25 µg/mL (cucumber downy mildew) [%],pest or weed control at 50 µg/mL (cucumber downy mildew) [%],pest or weed control at 100 µg/mL (cucumber downy mildew) [%],other results
"CCC(Nc1nc(Cl)nc(C(=O)OC)c1Cl)c1ccc(Oc2ncc(C(F)(F)F)cc2Cl)cc1 (stereo not drawn) [CK35, reference compound]",< 50,0,60,0,0,0,0,0,0,–,–,–,–,–,–
"Cc1nc(C)c(Cl)c(NCc2ccc(OCc3ccccc3)cc2)n1 [CK52, reference compound]",–,88,100,20,0,0,44,0,85,0,0,70,90,98,"inhibition at 8.3 ppm (rice blast; read-out: inhibition rate against rice blast, 8.3 ppm, in vitro): 0%"
"CCc1ncnc(NC(=O)Cc2ccc(Oc3ccc(C(F)(F)F)cn3)cc2)c1Cl [CK55, reference compound]",< 50,0,100,0,0,60,0,0,0,–,–,0,0,0,–
"Cc1ncnc(NC(=O)Cc2ccc(Oc3ccc(C(F)(F)F)cn3)cc2)c1Cl [CK56, reference compound]",< 50,100,100,0,< 50,70,32,0,70,0,0,0,0,10,pest or weed control at 10 µg/mL (carmine spider mite; 10 mg/L): 0%; pest or weed control at 100 µg/mL (carmine spider mite; 100 mg/L): 25%
"Cc1ncnc(NC(=O)Cc2ccc(Oc3ccc(C(F)(F)F)cc3Cl)cc2)c1Cl [CK58, reference compound]",< 50,100,0,0,0,0,0,0,0,0,0,–,–,–,–
"CCc1ncnc(NC(=O)Cc2ccc(Oc3ccc(C(F)(F)F)cc3)cc2)c1Cl [CK59, reference compound]",0,75,80,57,0,0,0,14,0,0,15,–,–,–,–
"Cc1ncnc(NC(=O)Cc2ccc(Oc3ncc(C(F)(F)F)cc3Cl)cc2)c1Cl [CK60, reference compound]",0,81,100,86,0,0,0,0,0,0,0,0,0,10,pest or weed control at 10 µg/mL (Diamond back moth; 10 mg/L): 15%; pest or weed control at 100 µg/mL (Diamond back moth; 100 mg/L): 25%
"Cc1ncnc(NC(=O)Cc2ccc(Oc3ccc(C(F)(F)F)cc3)cc2)c1Cl [CK61, reference compound]",0,88,100,0,0,70,0,0,0,0,0,30,85,90,–
"CC(Cl)c1ncnc(NCCc2ccc(Oc3nc(Cl)c(Cl)cc3Cl)cc2)c1Cl (stereo not drawn) [CK63, reference compound]",0,100,70,57,0,50,0,71,100,0,0,–,–,–,"pest or weed control at 6.25 µg/mL (corn rust; read-out: control effect against corn rust (%), 6.25 mg/L): 0%; pest or weed control at 25 µg/mL (corn rust; read-out: control effect against corn rust (%), 25 mg/L): 0%; pest or weed control at 100 µg/mL (corn rust; read-out: control effect against corn rust (%), 100 mg/L): 30%"
